Experimental data published in US6803233B2, “Model for Alzheimer's disease and other neurodegenerative diseases” (priority 2000, dated 2004).
“Also recorded” adds a separate entry of the source.

Columns and labels:
tangle-like structures = experiment: AT8 immunostaining of cultured rat hippocampal slices; assay type: cell-based; settings: rat hippocampal slices; agent applied for 6 days
Method: Cultured slices were stained with anti-phosphorylated tau antibody AT8.
(§1) Cultures of hippocampal slices were prepared from 10-12 days old rats.
Cultured rat hippocampal slices of 12 days in vitro were treated with 20 μM pravastatin for 6 days and processed from immunohistological studies with the monoclonal antibody AT8. The subiculum, CA1 field, and CA3 field of the hippocampus were examined by photomicroscopy.

MAPK (ERK1/2) = experiment: Immunoblot with anti-active MAPK in cultured hippocampal slices; assay type: cell-based; settings: hippocampal slices; 6 days
tangle-like formations = experiment: Electron microscopic immunogold analysis of cultured slices; assay type: cell-based, mouse; settings: ZPAD 6 days
Method: Lowicryl resin-embedded ultrathin sections (of 70-80 nm thickness) were picked up on either pioloform-coated nickel slot grids or pioloform-coated 400 mesh nickel grids. The grids were incubated on drops of blocking solution, followed by incubation on drops of primary antibodies (AT8 or PHF-1). After the incubation with primary antibodies, the sections were washed in TBS (three times for 10 min each) and in 50 mM Tris-HCl, pH 7.4, containing 0.9% NaCl (“TBS*”; once for 10 min; TBS* has 50 mM Tris-HCl and 0.9% NaCl without KCl, while TBS has 25 mM Tris-HCl and KCl) ) and incubated on drops of goat anti-mouse IgG coupled to 10 nm gold particles (British BioCell Int.). The secondary antibodies were diluted 1:100 in TBS* containing 0.05% polyethylene glycol 20000 (BDH; Merck) and 1% gelatin for 2 hr at 28° C. After additional washing in TBS* (three times for 10 min each) and PBS (once for 10 min), the sections were post-fixed in 2% glutaraldehyde in PBS for 2 min at room temperature and then washed in bidistilled water (three times for 10 min each). Finally, the sections were contrasted with saturated aqueous uranyl acetate followed by staining with lead citrate. […]

reactive microglia = experiment: ED-1 immunocytochemistry of cultured brain explants; assay type: cell-based, rat; settings: ZPAD 20 μM, mevastatin 20 μM or PD98059 50 μM alone, 6 days
Method: Immunocytochemical studies using the monoclonal antibody ED-1 that recognizes reactive microglia were used at 1:1000 dilution following standard immunohistochemical procedures. Microglial activation was determined by measuring cell numbers, optical density, and size of cell bodies using the program NIH Image. Brain tissue was cultured for 12 days and treated with ZPAD (20 μM) in the presence or absence of PD98059 (50 μM) for 6 days (FIG. 18). Cultured explants were then sliced and stained by using monoclonal antibody ED-1 which recognizes reactive microglia, a classical marker of inflammation. […] Cultured brain explants were then sliced and stained by using monoclonal antibody ED-1, a classical marker for reactive microglia and macrophages.

IL-10 = experiment: RT-PCR/northern blot of cytokine mRNA in cultured hippocampal slices; assay type: cell-based; settings: ZPAD 20 μM, mevastatin 20 μM
tau = experiment: Immunoblot of tau (tau-1, AT8) in cultured rat hippocampal slices; assay type: cell-based; settings: rat hippocampal slices; 6 days
Method: Immunoblotting was carried out by using anti-non phosphorylated tau antibody, tau-1 or anti-phosphorylated tau antibody, AT8.
as §1

p35 = experiment: Immunoblot of p35/p25 in cultured rat hippocampal slices; assay type: cell-based; settings: hippocampal slices
Method: Hippocampal slices were collected, homogenized, and subjected to SDS-PAGE electrophoresis. Immunoblots were then probed with anti-p35 sera that were raised against the C-terminal domain of p35.
as §1

tau protein = settings: literature report; cited from earlier work

N-CBZ-L-phenylalanyl-L-alanine-diazomethyl-ketone [ZPAD]
induction of AT8-immunoreactive tangle-like structures (tangle-like structures): only a small number; also recorded: moderately increased; also recorded: induced numerous tangles | activated MAPK (ERK1/2) (MAPK (ERK1/2)): activated; also recorded: activation | ultrastructure: intracellular inclusions (tangle-like formations): Numerous intracellular inclusions | reaction of microglia (ED-1 staining) (reactive microglia): triggered significant reaction of microglia | mRNA levels of IL-10 (IL-10): increases | native tau proteins (tau-1 blot) (tau): decreases in the native tau proteins; also recorded: induced a truncation of native tau proteins | tau fragments (tau-1 blot) (tau): increases in fragments at apparent molecular weights of 40, 33, and 29 kDa; also recorded: generation of tau fragments | levels of p35 (p35; 6 days): significant decrease | truncated form p25 (p35; six day treatment): paralleled increase | 29 kDa tau fragment (tau 29) (tau protein): production of a 29-kDa tau fragment; also recorded: delayed appearance of a 29 kDa fragment | high molecular weight isoforms of tau protein (tau protein): degradation of high molecular weight isoforms of tau protein
